Laboratory results published in article PMC6027359, “NUC041, a Prodrug of the DNA Methytransferase Inhibitor 5-aza-2′,2′-Difluorodeoxycytidine (NUC013), Leads to Tumor Regression in a Model of Non-Small Cell Lung Cancer” (Pharmaceuticals, 2018).
Several values for one entry are separate records, joined by “and”; a condition that tells them apart may be missing. Identical values can stand only once. Entries after “also recorded” stand apart in the source; their conditions may differ. Like-named read-outs stand apart in the source and are kept apart here.

Assays:
[1] = Pharmacokinetics in mouse whole blood after IM NUC041 in PEG-phospholipid depot (PPD); conditions: analyte in whole blood, NUC041 3 mg/mouse IM in PPD, mice
Experimental: Quantitative determination of NUC013 and NUC041 in quenched mouse whole blood was accomplished using protein precipitation and high-performance liquid chromatography with tandem mass spectrometry detection. Gemcitabine-^13C, ^15N2 “GemC-^13C”, was used as the internal standard. NUC013, NUC041 and GemC-^13C were extracted from 50 µL whole blood using protein precipitation with acetonitrile. Extracts were analyzed by hydrophilic interaction chromatography at 35 °C, using a XBridge™ Amide column (Waters Corp., Milford, MA, USA) under isocratic conditions, with 100 mM ammonium acetate pH 9: ethanol: acetonitrile (25:25:500, v/v/v) as mobile phase A. Column effluents at a constant flow rate of 300 µL/min were analyzed by multiple reaction monitoring (MRM) using a triple quadrupole mass spectrometer in positive-ion mode (AB Sciex 4000 Q Trap, equipped with TurboV IonSpray®) (SCIEX, Framingham, MA, USA).
The calibration curve for each analyte was fitted using weighted (1/x^2) linear regression analysis of the Analyte/IS peak area ratio versus Analyte/IS concentration ratio from 5–5000 ng/mL.
Pharmacokinetic parameters were calculated from mean concentrations of NUC-041 or NUC013 in blood over time for mice using Phoenix® WinNonlin® (Version 6.3; Pharsight, A Certara Company; Cary, NC, USA).
The PEG-phospholipid depot (Latitude Pharmaceuticals, San Diego, CA, USA) comprised of S-100, DSPE-PEG 2000, sesame oil, and alcohol. These four constituents were placed in a vial, warmed to 40 °C until all products dissolved, and the vehicle was then vortexed. Subsequently, the vehicle was filtered through a 0.22 µm syringe filter and NUC041 was added. The formulated product was heated to 40 °C, vortexed, and stored at 2–8 °C.

[2] = Pharmacokinetics in mouse whole blood after IV NUC041 in lipid nano-emulsion (LNE); conditions: analyte in whole blood, NUC041 15 mg/kg IV in LNE vehicle, mice
Text: As per methods previously presented, the lipid nano-emulsion (Latitude Pharmaceuticals, San Diego, CA, USA) contained an oil phase consisting of an injectable oil and lecithin and an aqueous phase comprising a tonicity adjuster, a stabilizer, and water.

[3] = system: human NSCLC NCI-H460; test: Human NSCLC NCI-H460 xenograft; conditions: for mean tumor volume at which ulceration developed: SC 2770; for deaths in group / mice that developed tumor ulceration: NCI-H460 xenograft; for deaths in group: n = 10 per group, NUC041: 0.6 mg group; for mice that developed tumor ulceration: NUC041 both PPD groups, evaluable mice, SC 4 of 10; for Median survival: p = NS
Experimental: Survival refers to animals that were not removed from the study by death or per protocol euthanasia.
Mice with tumors in the proper volume range were arbitrarily assigned to groups. Mice received test article as described in the text. Mice were observed daily for mortality and moribundity with weights and the tumor measurements taken twice weekly. Tumor volume was determined using the formula for an ellipsoid sphere: Length × Width^2/2 = Volume (mm^3). The experiments were scheduled to last 60 days from the day of tumor implant.

[4] = system: human colon cancer (LoVo); test: Mouse xenograft model of human colon cancer (LoVo); assay type: in vivo, NCr-nu/nu mice
Experimental: NUC041 in LNE was tested at 30 mg/kg IV for three consecutive days a week for three weeks in a mouse xenograft model of human colon cancer (Lovo) and compared to saline control (SC).
Study initiation began when the required number of mice had tumors of approximately 40 to 75 mm^3. […] Study initiation began when the required number of mice had tumors of approximately 32 to 75 mm^3.
Mice received test article as described in the text. […] Any animal whose weight decreased more than 30% from the weight on the first day of treatment or whose tumor reached 4000 mm^3 in volume, ulcerated, sloughed off, or was moribund was euthanized prior to study termination.

[5] = system: NSCLC NCI-H460; test: GI50 in NSCLC NCI-H460 cells (CellTiter-Glo); assay type: cell-based, human
Experimental: (§1) As per methods previously presented, cells were grown in an appropriate medium for the cell line of interest. 96 well plates of each cell line were seeded with 5000 cells per well and left overnight. […] Luminescence was recorded on a Synergy 4.0 (BioTek Instruments, Winooski, VT, USA). Assays were performed in triplicate.

[6] = system: Colon Cancer HCT-116; test: GI50 in colon cancer HCT-116 cells (CellTiter-Glo); assay type: cell-based, human
Experimental: as §1

[7] = Tolerability studies of NUC041 formulated in PPD; assay type: in vivo, mice
Experimental: Administration of 50 µL of PPD vehicle IM led to a weight loss of 10.9% two days following vehicle administration. NUC041 was formulated at a concentration of 60 mg/mL in this vehicle.

[8] = system: human NSCLC NCI-H460; test: Tumor histology of NCI-H460 xenografts; assay type: in vivo, NCr-nu/nu mice
Text: Approximately half of each tumor was fixed in 10% neutral-buffered formalin and the other half was frozen. The fixed neoplasm was trimmed, processed, embedded, and microtomed (approximately 5 µm sections). Tissue sections were mounted on glass slides, stained with hematoxylin and eosin (H&E), and coverslipped. Slides were submitted to a veterinary pathologist for a histopathologic evaluation.

[9] = set-up: method as in PMID 28726739; conditions: mice; cited from earlier work
[10] = continuous infusion over seven days, patients with refractory solid tumors; cited from earlier work
[11] = IM, mice premedicated with dexamethasone 50 µg IP
[12] = Mice 2-4 (individual), NUC041 0.6 mg/mouse qod, euthanasia day 34
[13] = Mouse 1, NUC041 2.4/3.0 mg/mouse qwk + dexamethasone, euthanasia day 35

In the case of “3′,5′-di-trimethylsilyl-2′,2′-difluoro-5-azadeoxycytidine [NUC041]”, the AUCinf [1] is reported as 6261 ng·h/mL, the AUClast [1] is reported as 6030 ng·h/mL and the Cmax [1] is reported as 4210 ng/mL. The MRT [1] was 156 min, the T1/2 [1] was 102 min and the Tmax [1] was 30 min. The Vz/F [1] was 1.172 L/kg, the AUCinf [2] was 590.6 ng·h/mL and the AUClast [2] was 580.4 ng·h/mL. For the same compound, the Cl [2] was 423 mL/min/kg, the Cmax [2] was 2803 ng/mL and the T1/2 [2] was 11 min. The Vss [2] was 4.431 L/kg, the Tmax ([2]; for NUC041 first sampling time) was 3 min and the “mean tumor volume at which ulceration developed” value ([3]; 0.6 mg NUC041 group, p = 0.0068) was 1474 mm^3. For the same compound, the “mean tumor volume at which ulceration developed” value ([3]; 3 mg NUC041 with dexamethasone group, p = 0.0043) was 1319 mm^3, the deaths in group [3] was “two” and the “mice that developed tumor ulceration” value [3] was 15 of 18. For the same compound, the Median survival ([3]; NUC041 0.6 mg IM qod x 15) was 24.5 days, the peak tumor volume ([3]; NUC041 0.6 mg group, Mice 3 and 4) was 3179 mm^3 and 1913 mm^3 and the “regression in tumor volume” value ([3]; NUC041 0.6 mg group, two individual mice with ulcerated tumors (Mice 3 and 4), day 25 to 32) was 38% and 51%. For the same compound, the Median survival ([3]; NUC041 2.4 mg/mouse IM qwk x 3 then 3.0 mg/mouse qwk x 1 with 50 µg dexamethasone IP) was 25.5 days, the “survival benefit vs SC” value ([3]; NUC041 in PPD with or without dexamethasone pretreatment) was “no survival benefit” and the “mice with tumor ulcerations, LoVo study” value ([4]; NUC041 administered IV in LNE, SC 3/10) was 2/10. The “efficacy in xenograft model of human colon cancer (LoVo)” value ([4]; NUC041 in LNE 30 mg/kg IV) was “only moderate efficacy”, the “study days on which growth of LoVo was significantly inhibited compared to SC” value ([4]; NUC041 in LNE 30 mg/kg IV, three consecutive days a week for three weeks, p < 0.05) was 27–30 study days and the GI50 ([5]; 72 h exposure) was 1.61 µM. For the same compound, the GI50 ([6]; 72 h exposure) was 2.8 µM, the “tolerability of IM injection of 3 mg per mouse” value ([7]; 50 µg IP dexamethasone 30 min prior) was “without weight loss or lethality” and the “maximum tolerated dose (MTD)” value ([7]; IM qod, no premedication, mice) was 0.6 mg/mouse. For the same compound, the MTD [7, 11] was greater than 3 mg/mouse, the “MTD as mean dose” value [7, 11] was greater than 123.8 mg/kg and the “Tumor Volume” value [8, 12] was 3035 mm^3 and 1960 mm^3 and 936 mm^3. For the same compound, the Ulceration [8, 12] was “no ulceration; also recorded: ulceration”, the “Histopathology: necrosis” value ([8]; Mice 2-4 (individual), NUC041 0.6 mg/mouse qod, euthanasia day 34, in ulcerated tumors excludes area of ulceration) was 50–60% necrosis and 10% necrosis * and 5% necrosis * and the “Histopathology: necrosis” value [8, 13] was 30–40% necrosis. The “Tumor Volume” value [8, 13] was 2746 mm^3 and the Ulceration [8, 13] was “no ulceration”.

With `Nc1ncn([C@@H]2O[C@H](CO)[C@@H](O)C2(F)F)c(=O)n1` [NUC013, 5-aza-2′,2′-difluorodeoxycytidine] the deaths in group [3] was “One”, the “mice that developed tumor ulceration” value [3] was 1 of 10 and the “hazard ratio (HR) vs SC” value ([3]; NUC013 20 mg/kg IV qd three consecutive days per week x 4, p = 0.0018, Log rank test) was 0.14. For the same compound, the GI50 ([5]; Homo sapiens, NCI-H460, 72 h exposure) was 1.57 µM, the GI50 ([6]; Homo sapiens, HCT-116, 72 h exposure) was 2.58 µM and the MTD [9] was greater than 120 mg/kg.

In the case of `Nc1ncn([C@H]2C[C@H](O)[C@@H](CO)O2)c(=O)n1` [decitabine], the MTD [10] is given as 2 mg/m^2 qd and the “main dose limiting toxicity” value [10] is given as “neutropenia”.
